Measurements from patent US6828320B2, “Heterocyclic compounds” (SmithKline Beecham Corporation, priority 1996, dated 2004).
Structures can show the parent of a compound that is named as a salt. Where two headings read alike, the source gives them in different places.

Experiments:
[1] = tested on: HN5-head and neck tumour cell line; assay: Cell proliferation assay, HN5; format: cell-based, human; settings: same methodology, 4 days
Description: (§1) The cell proliferation assay uses an immortalised human breast epithelial cell line (HB4a) which has been transformed by over-expression of c-erbB-2. Growth of these cells in low serum is dependent upon the c-erbB-2 tyrosine kinase activity. The specificity of the effect of the test compounds on tyrosine kinase dependent growth over general toxicity is assessed by comparison to an HB4a cell line which has been transfected with ras. Cells are plated at 3000/ well in 96-well plates in 0.1 ml medium and allowed to attach overnight. test compound is added in 0.1 ml medium, with a final concentration of 0.5% DMSO, and the plates incubated for 4 days at 37° C. The cells are then examined microscopically for evidence of morphological detransformation and cell mass is estimated by staining with methylene blue and measuring the absorbance at 620 nm. The results are shown in Table 1 below as the IC50 values in nM. Activity against a range of naturally occurring EGFr or c-erbB-2 over-expressing human tumour cell lines (BT474-breast, HN5-head and neck, N87-gastric and Calu3-lung) is assessed with selected compounds by the same methodology. The results are also shown in Table 1 below as the IC50 values in nM.

[2] = tested on: HB4a cell line transfected with ras; assay: Cell proliferation assay, HB4a ras; format: cell-based, human; settings: 4 days at 37° C., methylene blue staining, general toxicity control, read-out: Cell Proliferation HB4a ras
[3] = tested on: Calu3-lung tumour cell line; assay: Cell proliferation assay, Calu3; format: cell-based, human; settings: same methodology, 4 days
Description: as §1

[4] = target: T1, c-erbB-2 (baculovirus expressed, recombinant intracellular domain) (Homo sapiens, UniProt P04626); assay: Substrate phosphorylation assay, c-erbB-2; format: biochemical; settings: read-out: Substrate Phosphorylation erbB-2
T1 construct: baculovirus expressed, recombinant constructs of the intracellular domains of c-erbB-2 and c-erbB-4; made in house
Description: (§2) The substrate phosphorylation assays use baculovirus expressed, recombinant constructs of the intracellular domains of c-erbB-2 and c-erbB-4 that are constitutively active and EGFr isolated from solubilised A431 cell membranes. The method measures the ability of the isolated enzymes to catalyse the transfer of the γ-phosphate from ATP onto tyrosine residues in a biotinylated synthetic peptide (Biotin-[…]. […] The reaction is stopped by the addition of EDTA (final concentration 0.15 mM) and a sample is transferred to a streptavidin-coated 96-well plate. The plate is washed and level of phosphotyrosine on the peptide is determined using a Europium-labelled antiphosphotyrosine antibody and quantified with a time-resolved fluorescence technique.

[5] = target: HB4a cell line transformed by over-expression of c-erbB-2 (Homo sapiens, UniProt P04626); assay: Cell proliferation assay, HB4a erbB-2; format: cell-based; settings: 4 days at 37° C., methylene blue staining; read-out: Cell Proliferation HB4a erbB-2
Description: as §1, with “The specificity of the effect of the test compounds on tyrosine kinase dependent growth over general toxicity is assessed by comparison to an HB4a cell line which has been transfected with ras.” left out, “The results are shown in Table 1 below as the IC50 values in nM.” left out, “methodology.” for “methodology. The results are also shown in Table 1 below as the IC50 values in nM.”

[6] = target: T2, c-erbB-4 (baculovirus expressed, recombinant intracellular domain) (Homo sapiens, UniProt Q15303); assay: Substrate phosphorylation assay, c-erbB-4; format: biochemical
T2 construct: baculovirus expressed, recombinant constructs of the intracellular domains of c-erbB-2 and c-erbB-4; made in house
Description: as §2

[7] = tested on: BT474-breast tumour cell line; assay: Cell proliferation assay, BT474; format: cell-based, human; settings: same methodology, 4 days
Description: as §1

[8] = tested on: N87-gastric tumour cell line; assay: Cell proliferation assay, N87; format: cell-based, human; settings: same methodology, 4 days
Description: as §1

[9] = target: T3, EGFr isolated from solubilised A431 cell membranes (Homo sapiens, UniProt P00533); assay: Substrate phosphorylation assay, EGFr; format: biochemical
T3 construct: EGFr isolated from solubilised A431 cell membranes; endogenous in cells; host or cells: A431 cell membranes (solubilised)
Description: as §2

[10] = 30 minutes, room temperature, ATP and peptide at Km concentrations

HB4a cell line transformed by over-expression of c-erbB-2, sequence (P04626 whole entry, change not shown): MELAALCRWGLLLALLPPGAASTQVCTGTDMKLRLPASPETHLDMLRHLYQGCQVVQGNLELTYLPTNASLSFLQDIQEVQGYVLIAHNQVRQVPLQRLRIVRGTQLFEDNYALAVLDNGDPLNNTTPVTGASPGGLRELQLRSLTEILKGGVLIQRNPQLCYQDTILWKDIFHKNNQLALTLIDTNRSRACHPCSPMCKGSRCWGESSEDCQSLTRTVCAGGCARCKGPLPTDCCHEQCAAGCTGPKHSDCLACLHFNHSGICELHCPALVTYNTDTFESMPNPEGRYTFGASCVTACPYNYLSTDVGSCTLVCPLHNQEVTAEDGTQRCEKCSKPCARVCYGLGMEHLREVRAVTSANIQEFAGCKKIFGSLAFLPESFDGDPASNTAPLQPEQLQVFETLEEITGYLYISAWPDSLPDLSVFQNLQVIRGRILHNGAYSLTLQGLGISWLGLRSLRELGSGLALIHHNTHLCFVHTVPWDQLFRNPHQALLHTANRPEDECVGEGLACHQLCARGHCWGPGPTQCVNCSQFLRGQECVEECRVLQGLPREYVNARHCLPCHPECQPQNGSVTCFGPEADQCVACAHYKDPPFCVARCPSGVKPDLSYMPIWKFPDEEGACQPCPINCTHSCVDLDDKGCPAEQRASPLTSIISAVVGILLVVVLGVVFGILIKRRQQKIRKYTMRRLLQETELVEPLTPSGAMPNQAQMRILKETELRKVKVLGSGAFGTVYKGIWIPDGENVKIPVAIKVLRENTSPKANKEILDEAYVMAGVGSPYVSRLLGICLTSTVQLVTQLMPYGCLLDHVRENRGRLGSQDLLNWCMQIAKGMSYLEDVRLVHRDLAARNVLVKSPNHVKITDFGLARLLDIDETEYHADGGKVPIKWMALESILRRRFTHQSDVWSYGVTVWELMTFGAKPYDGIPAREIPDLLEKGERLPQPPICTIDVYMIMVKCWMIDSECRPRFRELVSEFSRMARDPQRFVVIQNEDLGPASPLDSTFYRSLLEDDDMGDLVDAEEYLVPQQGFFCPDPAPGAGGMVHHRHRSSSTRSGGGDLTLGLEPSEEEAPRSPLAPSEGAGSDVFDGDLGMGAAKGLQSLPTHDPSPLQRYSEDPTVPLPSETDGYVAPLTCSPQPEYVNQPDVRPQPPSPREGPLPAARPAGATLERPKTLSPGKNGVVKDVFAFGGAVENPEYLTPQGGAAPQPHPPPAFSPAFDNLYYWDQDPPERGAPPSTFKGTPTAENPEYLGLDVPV
T1 sequence (P04626 676-1255 limits assumed): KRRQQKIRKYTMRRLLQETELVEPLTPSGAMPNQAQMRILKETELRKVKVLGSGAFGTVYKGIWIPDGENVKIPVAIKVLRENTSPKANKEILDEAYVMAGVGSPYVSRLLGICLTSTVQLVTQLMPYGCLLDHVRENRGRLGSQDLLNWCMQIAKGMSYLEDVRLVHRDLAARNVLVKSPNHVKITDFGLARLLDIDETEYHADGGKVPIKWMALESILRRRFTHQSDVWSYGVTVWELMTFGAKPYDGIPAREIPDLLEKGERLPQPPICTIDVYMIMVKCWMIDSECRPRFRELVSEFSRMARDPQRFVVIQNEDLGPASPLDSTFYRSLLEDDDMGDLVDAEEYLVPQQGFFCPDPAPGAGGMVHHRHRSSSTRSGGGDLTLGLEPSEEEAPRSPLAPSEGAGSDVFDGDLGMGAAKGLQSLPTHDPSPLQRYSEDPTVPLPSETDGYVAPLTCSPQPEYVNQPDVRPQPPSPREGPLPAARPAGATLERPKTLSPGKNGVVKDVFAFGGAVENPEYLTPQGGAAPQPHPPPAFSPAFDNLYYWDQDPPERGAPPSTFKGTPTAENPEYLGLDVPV
T2 sequence (Q15303 676-1308 limits assumed): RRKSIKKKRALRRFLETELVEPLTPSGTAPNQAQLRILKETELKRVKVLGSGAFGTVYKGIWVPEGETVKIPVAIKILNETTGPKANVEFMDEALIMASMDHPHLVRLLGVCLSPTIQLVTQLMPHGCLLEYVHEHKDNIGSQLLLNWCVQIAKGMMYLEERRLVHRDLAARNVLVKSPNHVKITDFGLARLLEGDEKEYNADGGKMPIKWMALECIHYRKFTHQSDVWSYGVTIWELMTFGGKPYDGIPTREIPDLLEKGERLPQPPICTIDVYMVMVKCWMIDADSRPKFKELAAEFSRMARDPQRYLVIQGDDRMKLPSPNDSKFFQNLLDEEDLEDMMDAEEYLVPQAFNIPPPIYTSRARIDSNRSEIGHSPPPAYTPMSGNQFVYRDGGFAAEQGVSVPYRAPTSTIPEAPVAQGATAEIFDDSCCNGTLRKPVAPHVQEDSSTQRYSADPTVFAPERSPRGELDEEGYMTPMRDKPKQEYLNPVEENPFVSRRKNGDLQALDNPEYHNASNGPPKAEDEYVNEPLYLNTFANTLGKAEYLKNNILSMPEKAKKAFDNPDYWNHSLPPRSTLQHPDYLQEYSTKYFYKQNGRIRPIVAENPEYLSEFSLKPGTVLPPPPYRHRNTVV
T3 sequence (P00533 25-1210): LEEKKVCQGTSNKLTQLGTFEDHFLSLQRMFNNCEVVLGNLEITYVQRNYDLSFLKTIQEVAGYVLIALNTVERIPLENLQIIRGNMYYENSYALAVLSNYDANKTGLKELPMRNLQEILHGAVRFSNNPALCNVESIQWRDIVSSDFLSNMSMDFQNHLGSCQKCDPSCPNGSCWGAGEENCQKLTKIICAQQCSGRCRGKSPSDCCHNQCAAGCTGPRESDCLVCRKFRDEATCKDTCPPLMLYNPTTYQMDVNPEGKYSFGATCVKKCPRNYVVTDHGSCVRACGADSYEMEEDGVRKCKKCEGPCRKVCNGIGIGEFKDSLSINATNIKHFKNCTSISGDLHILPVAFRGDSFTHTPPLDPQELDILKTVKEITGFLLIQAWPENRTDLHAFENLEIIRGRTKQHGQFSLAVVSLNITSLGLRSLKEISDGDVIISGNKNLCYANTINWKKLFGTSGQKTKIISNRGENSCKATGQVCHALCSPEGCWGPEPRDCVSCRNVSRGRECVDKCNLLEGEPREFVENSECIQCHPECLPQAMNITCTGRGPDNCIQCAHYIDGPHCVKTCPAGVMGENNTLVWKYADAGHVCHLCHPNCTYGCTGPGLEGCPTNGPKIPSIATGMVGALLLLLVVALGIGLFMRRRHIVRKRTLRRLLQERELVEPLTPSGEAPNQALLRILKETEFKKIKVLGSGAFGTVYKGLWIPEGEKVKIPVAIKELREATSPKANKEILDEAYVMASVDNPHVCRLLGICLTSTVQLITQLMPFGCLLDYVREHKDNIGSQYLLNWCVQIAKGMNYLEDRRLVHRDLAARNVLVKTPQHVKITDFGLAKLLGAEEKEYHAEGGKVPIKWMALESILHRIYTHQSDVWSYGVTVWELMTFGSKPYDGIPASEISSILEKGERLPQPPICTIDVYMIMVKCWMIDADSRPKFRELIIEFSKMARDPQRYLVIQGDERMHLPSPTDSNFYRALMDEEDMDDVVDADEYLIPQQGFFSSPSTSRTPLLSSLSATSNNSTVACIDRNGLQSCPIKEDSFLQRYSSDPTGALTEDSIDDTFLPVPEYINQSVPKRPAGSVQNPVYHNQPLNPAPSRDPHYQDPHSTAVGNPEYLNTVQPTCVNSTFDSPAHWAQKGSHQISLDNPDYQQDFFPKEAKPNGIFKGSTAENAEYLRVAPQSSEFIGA

Compound	IC50 ([1]; Homo sapiens, 96 h)	IC50 ([2]; Homo sapiens, HB4a, 96 h)	IC50 ([3]; Homo sapiens, Calu-3, 96 h)	IC50 [4]	GI50 [5]	IC50 [6]	IC50 [9, 10]	also measured
c1ccc(COc2ccc(Nc3ncnc4ccc(-c5cccs5)cc34)cc2)cc1 [Example 2, (4-Benzyloxy-phenyl)-(6-(thiophen-2-yl)-quinazolin-4-yl)-amine]	26000 nM	8300 nM	4600 nM	21 nM	1000 nM	500 nM		
c1ccc(COc2ccc(Nc3ncnc4ccc(-c5ccc(C6OCCO6)o5)cc34)cc2)cc1 [Example 5]	1400 nM	19000 nM	780 nM	20 nM	400 nM	320 nM		
Cn1cncc1-c1ccc2ncnc(Nc3ccc(OCc4ccccc4)cc3)c2c1 [Example 6, (4-Benzyloxy-phenyl)-(6-(3-methyl-3H-imidazol-4-yl)-quinazolin-4-yl)-amine]	5200 nM	16000 nM	5800 nM	110 nM	1600 nM	1000 nM	680 nM	IC50 ([7]; Homo sapiens, BT-474, 96 h): 1900 nM; IC50 ([8]; Homo sapiens, 96 h): 1800 nM
C1=C(c2ccc3ncnc(Nc4ccc(OCc5ccccc5)cc4)c3c2)OCC1 [Example 7, (4-Benzyloxy-phenyl)-(6-(2,3-dihydrofuran-5-yl)-quinazolin-4-yl)-amine]	5500 nM	12000 nM	4700 nM	36 nM	1300 nM	1500 nM		
CN1CCN(Cc2ccc(-c3ccc4ncnc(Nc5ccc(OCc6ccccc6)cc5)c4c3)o2)CC1 [Example 10]	2100 nM	7100 nM	2200 nM	52 nM	1500 nM	780 nM		
CCN(CCN(C)C)Cc1ccc(-c2ccc3ncnc(Nc4ccc(OCc5ccccc5)cc4)c3c2)o1 [Example 13, N-(5-(4-(4-Benzyloxy-phenylamino)-quinazolin-6-yl)-furan-2-ylmethyl)-N-ethyl-N′,N′-dimethyl-ethane-1,2-diamine]		2200 nM		350 nM	450 nM	2300 nM	300 nM	
c1ccc(COc2ccc(Nc3ncnc4ccc(-c5ccc(CNc6cccnc6)o5)cc34)cc2)cc1 [Example 14, (4-Benzyloxy-phenyl)-(6-(5-(pyridin-3-ylaminomethyl)-furan-2-yl)quinazolin-4-yl)-amine]		5000 nM		34 nM	680 nM	1200 nM		IC50 [9]: 200 nM
c1ccc(COc2ccc(Nc3ncnc4ccc(-c5ccc(CNCC6CCCO6)o5)cc34)cc2)cc1 (centres unmarked) [Example 15, (4-Benzyloxy-phenyl)-(6-(5-(((tetrahydro-furan-2-ylmethyl)-amino)-methyl)-furan-2-yl)-quinazolin-4-yl)-amine hydrochloride]		3200 nM		50 nM	2600 nM	2300 nM	540 nM	
NC(=O)[C@@H]1CCCN1Cc1ccc(-c2ccc3ncnc(Nc4ccc5c(cnn5Cc5ccccc5)c4)c3c2)o1 [Example 18, (S)-1-(5-(4-(1-Benzyl-1H-indazol-5-ylamino)-quinazolin-6-yl)-furan-2-ylmethyl)-pyrrolidine-2-carboxylic acid amide dihydrochloride]	840 nM	> 50000 nM	360 nM	45 nM	9 nM	34 nM		IC50 ([7]; Homo sapiens, BT-474, 96 h): 2 nM; IC50 ([8]; Homo sapiens, 96 h): 180 nM
Cc1nnc(-c2ccc3ncnc(Nc4ccc5c(cnn5Cc5cccc(F)c5)c4)c3c2)o1 [Example 22, (1-(3-Fluorobenzyl)-1H-indazol-5-yl)-(6-(5-methyl-1,3,4-oxadiazol-2-yl)-quinazolin-4-yl)-amine hydrochloride]	910 nM	27000 nM	2200 nM		430 nM		8 nM	IC50 ([7]; Homo sapiens, BT-474, 96 h): 97 nM; IC50 ([8]; Homo sapiens, 96 h): 600 nM
Cc1nnc(-c2ccc3ncnc(Nc4ccc5c(cnn5Cc5cccc(F)c5F)c4)c3c2)o1 [Example 24, (1-(2,3-Difluorobenzyl)-1H-indazol-5-yl)-(6-(5-methyl-1,3,4-oxadiazol-2-yl)quinazolin-4-yl)-amine hydrochloride]		> 50000 nM		2 nM	17000 nM		15 nM	
Cc1nnc(-c2ccc3ncnc(Nc4ccc(OCc5ccccc5F)c(Cl)c4)c3c2)o1 [Example 25, (3-Chloro-4-(2-fluoro-benzyloxy)-phenyl)-(6-(5-methyl-1,3,4-oxadiazol-2-yl)-s-quinazolin-4-yl)-amine hydrochloride]		> 50000 nM		15 nM	750 nM		22 nM	
Cc1nnc(-c2ccc3ncnc(Nc4ccc(OCc5cccc(F)c5)c(Cl)c4)c3c2)o1 [Example 26, (3-Chloro-4-(3-fluoro-benzyloxy)-phenyl)-(6-(5-methyl-1,3,4-oxadiazol-2-yl)-quinazolin-4-yl)-amine hydrochloride]		> 50000 nM		7 nM	650 nM		18 nM	
Cc1nnc(-c2ccc3ncnc(Nc4ccc(OCc5ccccc5)cc4)c3c2)o1 [Example 27, (4-Benzyloxy-phenyl)-(6-(5-methyl-1,3,4-oxadiazol-2-yl)-quinazolin-4-yl)-amine hydrochloride]		50000 nM		10 nM	6500 nM		47 nM	
Cc1nnc(-c2ccc3ncnc(Nc4ccc(OCc5ccccc5F)cc4)c3c2)o1 [Example 28, (4-(2-Fluoro-benzyloxy)-phenyl)-(6-(5-methyl-1,3,4-oxadiazol-2-yl)-quinazolin-4-yl)-amine hydrochloride]		> 50000 nM		7 nM	5300 nM		50 nM	IC50 ([8]; Homo sapiens, 96 h): 8200 nM
Cc1nnc(-c2ccc3ncnc(Nc4ccc(OCc5cccc(F)c5)cc4)c3c2)o1 [Example 29, hydrochloride]					2500 nM		23 nM	IC50 [1]: 4400 nM; IC50 [7]: 770 nM; IC50 [2]: > 50000 nM; IC50 [3]: 23000 nM; IC50 [8]: 2400 nM; IC50 [4, 10]: 3 nM
Cc1nnc(-c2ccc3ncnc(Nc4ccc(S(=O)(=O)c5ccccc5)cc4)c3c2)o1 [Example 30, (4-Benzenesulphonyl-phenyl)-(6-(5-methyl-1,3,4-oxadiazol-2-yl)-quinazolin-4-yl)-amine hydrochloride]		50000 nM	18000 nM	6 nM	5400 nM		38 nM	
Cn1cncc1-c1ccc2ncnc(Nc3ccc4c(cnn4Cc4ccccc4)c3)c2c1 [Example 38, (1-Benzyl-1H-indazol-5-yl)-(6-(3-methyl-3H-imidazol-4-yl)-quinazolin-4-yl)-amine]				88 nM		520 nM	140 nM	
c1ccc(Cn2ncc3cc(Nc4ncnc5ccc(-c6noc(Cc7cccnc7)n6)cc45)ccc32)cc1 [Example 62]		3700 nM		100 nM	500 nM		13 nM	
